Values after ≈ are worked out from the molar mass of the structure shown. Read-outs that look alike come from different tables or passages of the source.
Legend:
Ch. rectangulare Mo13 = assay: Resistance to biocides: ascospore germination; assay type: cell-based
Procedure: (§1) The toxicity of biocides and chemicals towards the indoor Chaetomium-like isolates and the reference indoor strains of the genera Aspergillus, Paecilomyces, Penicillium and Trichoderma was assessed in parallel with the six parameters presented in the Supplementary Materials: (1) germ tube assay (Figure S3); (2) estimation of turbidity (Figure S4); (3) visual emission of fluorescence (excitation at 360 nm); (4) visual resporulation of conidia; (5) inhibition of glucose consumption; and (6) resazurin reduction. All assays were performed in malt extract broth (12 g L^−1 malt extract, 7.2 µmol mL^−1 glucose, pH 5.5; Scharlab, Barcelona, Spain) in 96-well microtiter plates as described for the ICP assay.
(§2) The assays measuring inhibition of germination of conidia were done with spore suspensions of 1–2 × 10^6 fungal spores mL−^1. The tests were performed in malt extract broth (Oxoid, Hampshire United Kingdom) 12 g in 1 L, pH 5.5, glucose 7.1 mmol L^−1, and performed on microtiter plates as described by Bencsik et al. for the ICP assay. The germ tube germination is visualized in Figure S3, and the tests estimating turbidity and emission of fluorescence provoked by the germinated and metabolically active conidia and C. globosum ascospores are visualized in Figures S4 and S5. Examples of the tests estimating fluorescence emission, turbidity and re-sporulation of conidia and ascospores are compared in Figure S5. The difference of the endpoints measured with the different assays was between […]. The resazurin reduction assays (Figure S6) were performed as described for the ICP assay, except that the microtiter plates were visually inspected for the change of the blue/violet color of resazurin (indicating inhibition of germination of the exposed conidia) to the […] (indicating metabolic activity and germination of the exposed conidia).
(§3) The formation of germ tubes was inspected by a phase-contrast microscope (Olympus CKX41, Tokyo, Japan; magnification 400×) and an image recording software (Cellsense® standard version 11.0.06, Olympus Soft Imaging Solutions GmbH, Münster, Germany, 2012) after 1 and 2 days of incubation at 28 °C. The EC50 corresponded to the inhibition of 50% (estimated as the concentration between EC0 and EC100) of the conidia compared to the ethanol control (the growth medium containing 1% of ethanol). The tests were run in triplicate and calibrated with triclosan (CAS: 3380-34-5; Sigma Chemical Co., St. Louis, MO, USA) giving a mean SD of ±<20%.

[1] = system: Outdoor Chaetomium-like strain CH1/tu; assay: Resistance to biocides: ascospore germination; assay type: cell-based, Unidentified Chaetomium-like strain
Procedure: as §1
The assays measuring inhibition of germination of conidia were done with spore suspensions of 1–2 × 10^6 fungal spores mL−^1. […] The germ tube germination is visualized in Figure S3, and the tests estimating turbidity and emission of fluorescence provoked by the germinated and metabolically active conidia and C. globosum ascospores are visualized in Figures S4 and S5. Examples of the tests estimating fluorescence emission, turbidity and re-sporulation of conidia and ascospores are compared in Figure S5. The difference of the endpoints measured with the different assays was between 38% and <28.5%. […]

[2] = system: Outdoor T. atroviride SZMC 207080; assay: Resistance to biocides: conidial germination; assay type: cell-based, Trichoderma atroviride; conditions: strain SZMC 207080, outdoor T. atroviride
Procedure: as §1, §2, §3

[3] = system: Outdoor T. atroviride SZMC 12541; assay: Resistance to biocides: conidial germination; assay type: cell-based, Trichoderma atroviride; conditions: strain SZMC 12541, outdoor T. atroviride
Procedure: as §1, §2, §3

[4] = system: Outdoor T. atroviride SZMC 12474; assay: Resistance to biocides: conidial germination; assay type: cell-based, Trichoderma atroviride; conditions: strain SZMC 12474, outdoor T. atroviride
Procedure: as §1, §2, §3

[5] = system: Outdoor T. atroviride SZMC 1723; assay: Resistance to biocides: conidial germination; assay type: cell-based, Trichoderma atroviride; conditions: strain SZMC 1723, outdoor T. atroviride
Procedure: as §1, §2, §3

[6] = system: Outdoor T. atroviride SZMC 12516; assay: Resistance to biocides: conidial germination; assay type: cell-based, Trichoderma atroviride; conditions: strain SZMC 12516, outdoor T. atroviride
Procedure: as §1, §2, §3

[7] = system: Outdoor T. atroviride SZMC 12323; assay: Resistance to biocides: conidial germination; assay type: cell-based, Trichoderma atroviride; conditions: strain SZMC 12323, outdoor T. atroviride
Procedure: as §1, §2, §3

Ch. globosum MTAV37 = assay: Resistance to biocides: ascospore germination; assay type: cell-based, Chaetomium globosum; conditions: strain MTAV37, indoor Ch. globosum
Procedure: as §1, §2, §3

Ch. globosum ABCD = assay: Resistance to biocides: ascospore germination; assay type: cell-based, Chaetomium globosum; conditions: strain ABCD, indoor Ch. globosum
Procedure: as §1, §2, §3

Ch. globosum 2c/MT = assay: Resistance to biocides: ascospore germination; assay type: cell-based, Chaetomium globosum; conditions: strain 2c/MT, indoor Ch. globosum
Procedure: as §1, §2, §3

Ch. globosum 3b/AP = assay: Resistance to biocides: ascospore germination; assay type: cell-based, Chaetomium globosum; conditions: strain 3b/AP, indoor Ch. globosum
Procedure: as §1, §2, §3

Ch. globosum HAS5 = assay: Resistance to biocides: ascospore germination; assay type: cell-based, Chaetomium globosum; conditions: strain HAS5, indoor Ch. globosum
Procedure: as §1, §2, §3

Ch. globosum MTAV35 = assay: Resistance to biocides: ascospore germination; assay type: cell-based, Chaetomium globosum; conditions: strain MTAV35, indoor Ch. globosum, median of four independent measurements with five methods
Procedure: as §1, §2, §3

[8] = Trichoderma atroviride, read-out: EC50
[9] = Chaetomium globosum, read-out: EC50

Compound	EC50 [2, 8]	EC50 [3, 8]	EC50 [4, 8]	EC50 [5, 8]	EC50 [6, 8]	EC50 [7, 8]	EC50 (Ch. globosum MTAV37; [9])	EC50 (Ch. globosum ABCD; [9])	EC50 (Ch. globosum 2c/MT; [9])	EC50 (Ch. globosum 3b/AP; [9])	EC50 (Ch. globosum HAS5; [9])	EC50 (Ch. globosum MTAV35; [9])	EC50 [2]	EC50 [3]	EC50 [4]	EC50 [5]	EC50 [6]	EC50 [7]	EC50 (Ch. globosum 2c/MT)	EC50 (Ch. globosum 3b/AP)	other results
O=BOB(O)OB(O)OB=O [Borax, sodium tetraborate]	1200 µg/mL	1200 µg/mL	2500 µg/mL	1200 µg/mL	2500 µg/mL	1200 µg/mL	5000 µg/mL	5000 µg/mL	> 5000 µg/mL	> 5000 µg/mL	> 5000 µg/mL	5000 µg/mL									EC50 (Ch. rectangulare Mo13): > 5000 µg/mL; EC50 ([1]; read-out: EC50): 1200 µg/mL
NCl [Chloramine, chloramine]													2500 µg/mL (≈ 48.6 mM)	2500 µg/mL (≈ 48.6 mM)	2500 µg/mL (≈ 48.6 mM)	2500 µg/mL (≈ 48.6 mM)	2500 µg/mL (≈ 48.6 mM)	2500 µg/mL (≈ 48.6 mM)	2500 µg/mL (≈ 48.6 mM)	2500 µg/mL (≈ 48.6 mM)	EC50 (Ch. globosum HAS5): 2500 µg/mL (≈ 48.6 mM)
OCCOc1ccccc1 [Phenoxy-ethanol, phenoxyethanol]	3000 µg/mL (≈ 21.7 mM)	1500 µg/mL (≈ 10.9 mM)	3000 µg/mL (≈ 21.7 mM)	1500 µg/mL (≈ 10.9 mM)	1500 µg/mL (≈ 10.9 mM)	1500 µg/mL (≈ 10.9 mM)	700 µg/mL (≈ 5.07 mM)	1500 µg/mL (≈ 10.9 mM)	1500 µg/mL (≈ 10.9 mM)	1500 µg/mL (≈ 10.9 mM)	1500 µg/mL (≈ 10.9 mM)	700 µg/mL (≈ 5.07 mM)									
Oc1cc(Cl)ccc1Oc1ccc(Cl)cc1Cl [Triclosan, 5-Chloro-2-(2,4-dichlorophenoxy)phenol]	8 µg/mL (≈ 0.0276 mM)	16 µg/mL (≈ 0.0553 mM)	8 µg/mL (≈ 0.0276 mM)	16 µg/mL (≈ 0.0553 mM)	16 µg/mL (≈ 0.0553 mM)	30 µg/mL (≈ 0.104 mM)	4 µg/mL (≈ 0.0138 mM)	4 µg/mL (≈ 0.0138 mM)	4 µg/mL (≈ 0.0138 mM)	4 µg/mL (≈ 0.0138 mM)	2 µg/mL (≈ 0.00691 mM)	2 µg/mL (≈ 0.00691 mM)									
polyhexamethylene biguanide hydrochloride [PHMB]													8 µg/mL	2 µg/mL	4 µg/mL	8 µg/mL	30 µg/mL	8 µg/mL	8 µg/mL	8 µg/mL	EC50 (Ch. rectangulare Mo13; strain Mo13, indoor Ch. rectangulare): 4 µg/mL; EC50 [1]: 4 µg/mL; EC50 (Ch. globosum MTAV37): 4 µg/mL; EC50 (Ch. globosum ABCD): 4 µg/mL; EC50 (Ch. globosum HAS5): 8 µg/mL; EC50 (Ch. globosum MTAV35): 4 µg/mL

— paper PMC7405012, “Detection of Chaetomium globosum, Ch. cochliodes and Ch. rectangulare during the Diversity Tracking of Mycotoxin-Producing Chaetomium-like Isolates Obtained in Buildings in Finland” (Toxins, 2020)
